The values that follow come from patent US10189863B2, “5,6-dihydro-4H-benzo[b]thieno-[2,3-d]azepine derivatives” (PULMOCIDE LIMITED, priority 2014, dated 2019).

Molecules are shown by their SMILES.

The test system of data set [1] is RSV A2 strain. The experiment in a line: Assessment of RSV induced CPE in HEp2 cells (RSV A2 strain). Type of data set: cell-based. Particulars: human respiratory syncytial virus, HEp2 cells; for IC50: HEp-2, 120 h, 1 MOI, 5 days, read-out: RSV A2 CPE IC50; for inhibition at 0.1 µg/mL / inhibition at 0.01 µg/mL: HEp-2; for inhibition at 0.1 µg/mL: Inhibition (%) at 0.1 μg/mL, read-out: RSV A2 CPE % Inhibition; for inhibition at 0.01 µg/mL: Inhibition (%) at 0.01 μg/mL. The method, then:
(§1) Assessment of RSV Induced CPE in HEp2 Cells
(§2) HEp2 cells were seeded (10^3/well/50 μL) in 384-well plates (Catalogue number 353962, BD Falcon, Oxford, UK) in […] containing 2 mM L-glutamine and 1 mM sodium pyruvate one day before infection. RSV A2 strain (#0709161v, NCPV, Public Health England, Wiltshire) or RSV B Washington strain (VR-1580, ATCC, Manassas, Va. 20108) virus solutions were prepared in serum free-DMEM with 2 mM L-glutamine and 1 mM sodium pyruvate, and then added (50 μL/well) to achieve a final virus concentration of 1 MOI. Simultaneously test compounds (0.5 μL DMSO solution) were added to 100 μL of HEp2 cell culture with virus solution to provide a final DMSO solution of 0.5%. Plates were incubated (37° C./5% CO2) for 5 days for studies using RSV A2 strain or 6 days for those using RSV B strain, and then resazurin sodium salt (5 μL of 0.03% solution; Sigma-Aldrich, Dorset, UK) was added to each well and the plate incubated for a further 6 hr (37° C./5% CO2). The fluorescence of each well [545 nm (excitation)/590 nm (emission)] was determined using a multi-scanner (Clariostar: BMG, Buckinghamshire, UK). The percentage inhibition for each well was calculated and the IC50, IC75 and IC90 values were calculated from the concentration-response curve generated for each test compound.

The nature of data set [2]: Cell viability: resazurin assay. Format: cell-based, human. The note with it: human, HEp2 cells. Here is the method: Cell Viability: Resazurin Assay
HEp2 cells were seeded in 384-well plates (10^3/well/50 μL; BD Falcon Ref 353962) in FBS DMEM (5%, containing 2 mM L-glutamine and 1 mM sodium pyruvate) one day before experimentation. Serum-free DMEM (50 μL) was added to test wells while for control wells the media was removed and sterile water (100 μL) was added. Test compounds (0.5 μL DMSO solution) were added to give a final DMSO concentration of 0.5%. Hep2 cells were incubated with each test compound for 5 days (37° C./5% CO2 in 5% FBS) and then resazurin stock solution (5 μL; 0.03%) was added to each well and the plate incubated for a further 6 hr (37° C./5% CO2). The fluorescence of each well at 545 nm (excitation) and 590 nm (emission) was determined using a multi-scanner (Clariostar: BMG Labtech). The percentage loss of cell viability was calculated for each well relative to vehicle (0.5% DMSO) treatment.
Any apparent increase in cell viability associated with test compound treatment relative to vehicle is consequently tabulated as a negative percentage. Where appropriate, a CC50 value was calculated from the concentration-response curve generated from the concentration-response curve for each test compound.
(The colour change of resazurin is a common sign of viable cells or microbes.)

Data set [3] deals with RSV B Washington strain. Nature of the data set: Assessment of RSV induced CPE in HEp2 cells (RSV B Washington strain). The note with it: human respiratory syncytial virus, HEp2 cells; for IC50: HEp-2, 144 h, 1 MOI, 6 days, read-out: RSV B CPE IC50; for inhibition at 1 µg/mL: HEp-2, Inhibition (%) at 1 μg/mL, read-out: RSV B CPE % Inhibition. Format: cell-based. Here is the method: as §1, §2

Consider `CCc1cnc(N2CC3(CCOCC3)C2)c(C(=O)Nc2ccc(C(=O)N3CCc4cc(C(=O)Nc5c(F)cccc5Cl)sc4-c4ccccc43)cc2)c1` [Example 61, N-(2-chloro-6-fluorophenyl)-6-(4-(5-ethyl-2-(7-oxa-2-azaspiro[3.5]nonan-2-yl)nicotinamido)benzoyl)-5,6-dihydro-4H-benzo[b]thieno[2,3-d]azepine-2-carboxamide], for which, in data set [1], the IC50 turned out to be 0.13 nM and the inhibition at 0.1 µg/mL was found to be 97%. Besides, in data set [2], the cytotoxic concentration (CC50) at 5 days was > 13300 nM. Further, in data set [3], the half-maximal inhibitory concentration (IC50) was 4.1 nM and the inhibition at 1 µg/mL worked out at 100%.

With `Cc1ccc(C(=O)Nc2ccc(C(=O)N3CCc4cc(C(=O)Nc5c(C)cccc5F)sc4-c4ccccc43)cc2)c(N2CC3(CCOCC3)C2)n1` [Example 40, N-(2-fluoro-6-methylphenyl)-6-(4-(6-methyl-2-(7-oxa-2-azaspiro[3.5]nonan-2-yl)nicotinamido)benzoyl)-5,6-dihydro-4H-benzo[b]thieno[2,3-d]azepine-2-carboxamide], in data set [1], the 50% inhibitory concentration (IC50) came out at 0.15 nM and the inhibition at 0.1 µg/mL was determined as 100%. The CC50 at 5 days in data set [2] was > 14000 nM. For the same compound, in data set [3], the half-inhibitory concentration (IC50) turned out to be 41.3 nM and the inhibition at 1 µg/mL came to 80%.

In the case of `Cc1cnc(N2CC3(CCOCC3)C2)c(C(=O)Nc2ccc(C(=O)N3CCc4cc(C(=O)Nc5c(C)cccc5CO)sc4-c4ccccc43)cc2)c1` [Example 58, N-(2-(hydroxymethyl)-6-methylphenyl)-6-(4-(5-methyl-2-(7-oxa-2-azaspiro[3.5]nonan-2-yl)nicotinamido)benzoyl)-5,6-dihydro-4H-benzo[b]thieno[2,3-d]azepine-2-carboxamide], in data set [1], the IC50 is 0.32 nM and the inhibition at 0.01 µg/mL came to 100%. For the same compound, in data set [2], the cytotoxic concentration (CC50) at 5 days is > 13700 nM. In data set [3], the IC50 was 8.6 nM and the inhibition at 1 µg/mL was found to be 100%.

Regarding `COc1cccc(F)c1NC(=O)c1cc2c(s1)-c1ccccc1N(C(=O)c1ccc(NC(=O)c3cc(C)cnc3N3CC4(CCOCC4)C3)cc1)CC2` [Example 53, N-(2-fluoro-6-methoxyphenyl)-6-(4-(5-methyl-2-(7-oxa-2-azaspiro[3.5]nonan-2-yl)nicotinamido)benzoyl)-5,6-di-hydro-4H-benzo[b]thieno[2,3-d]azepine-2-carboxamide], in data set [1], the half-inhibitory concentration (IC50) was determined as 0.23 nM and the inhibition at 0.1 µg/mL worked out at 94%. Also, the CC50 at 5 days in data set [2] was > 13700 nM. In addition, in data set [3], the concentration for half-maximal inhibition (IC50) is 14.6 nM and the inhibition at 1 µg/mL is 96%.

Take `Cc1cccc(F)c1NC(=O)c1cc2c(s1)-c1ccccc1N(C(=O)c1ccc(NC(=O)c3cccnc3N3CC4(CCOCC4)C3)cc1)CC2` [Example 25, 6-(4-(2-(7-oxa-2-azaspiro[3.5]nonan-2-yl)nicotinamido)benzoyl)-N-(2-fluoro-6-methylphenyl)-5,6-dihydro-4H-benzo[b]thieno[2,3-d]azepine-2-carboxamide]: in data set [1], the IC50 came out at 0.18 nM and the inhibition at 0.1 µg/mL was found to be 99%. Also, the CC50 at 5 days in data set [2] is > 14200 nM. In data set [3], the half-inhibitory concentration (IC50) was 20.6 nM and the inhibition at 1 µg/mL amounted to 71%.

With `O=C(Nc1c(F)cc(F)cc1F)c1cc2c(s1)-c1ccccc1N(C(=O)c1ccc(NC(=O)c3cc4ccccc4nc3N3CC4(CCOCC4)C3)cc1)CC2` [Example 88, 6-(4-(2-(7-oxa-2-azaspiro[3.5]nonan-2-yl)quinoline-3-carboxamido)benzoyl)-N-(2,4,6-trifluorophenyl)-5,6-di-hydro-4H-benzo[b]thieno[2,3-d]azepine-2-carboxamide], in data set [1], the half-maximal inhibitory concentration (IC50) was 0.58 nM and 0.01 µg/mL produced 93% inhibition. Also, in data set [2], the CC50 at 5 days is > 12900 nM. Further, in data set [3], the IC50 worked out at 3 nM and the inhibition at 1 µg/mL was 93%.

In the case of `O=C(Nc1c(F)cccc1Cl)c1cc2c(s1)-c1ccccc1N(C(=O)c1ccc(NC(=O)c3cc4c(nc3N3CC5(CCOCC5)C3)CCC4)cc1F)CC2` [Example 80, 6-(4-(2-(7-oxa-2-azaspiro[3.5]nonan-2-yl)-6,7-dihydro-5H-cyclopenta[b]pyridine-3-carboxamido)-2-fluorobenzoyl)-N-(2-chloro-6-fluorophenyl)-5,6-dihydro-4H-benzo[b]thieno [2,3-d]azepine-2-carboxamide], in data set [1], the IC50 came to 2 nM and the inhibition at 0.01 µg/mL worked out at 91%. In data set [2], the cytotoxic concentration (CC50) at 5 days is > 12800 nM. In addition, in data set [3], the IC50 is 1.6 nM and the inhibition at 1 µg/mL was 93%.

Turning to `O=C(Nc1c(F)cccc1Cl)c1cc2c(s1)-c1ccccc1N(C(=O)c1ccc(NC(=O)c3cc4c(nc3N3CC5(CCOCC5)C3)CCOC4)cc1)CC2` [Example 83, N-(4-(2-((2-chloro-6-fluorophenyl)carbamoyl)-5,6-di-hydro-4H-benzo[b]thieno[2,3-d]azepine-6-carbonyl)phenyl)-2-(7-oxa-2-azaspiro[3.5]nonan-2-yl)-7,8-dihydro-5H-pyrano [4,3-b]pyridine-3-carboxamide], in data set [1], the half-inhibitory concentration (IC50) stood at 0.15 nM and the inhibition at 0.01 µg/mL stood at 100%. In addition, the 50% cytotoxic concentration (CC50) at 5 days in data set [2] was > 12800 nM. Further, in data set [3], the 50% inhibitory concentration (IC50) came out at 6.2 nM and the inhibition at 1 µg/mL came out at 95%.

Regarding `C=Cc1cccc(F)c1NC(=O)c1cc2c(s1)-c1ccccc1N(C(=O)c1ccc(NC(=O)c3cc(C)cnc3N3CC4(CCOCC4)C3)cc1)CC2` [Example 36, N-(2-fluoro-6-vinylphenyl)-6-(4-(5-methyl-2-(7-oxa-2-azaspiro[3.5]nonan-2-yl)nicotinamido)benzoyl)-5,6-dihydro-4H-benzo[b]thieno[2,3-d]azepine-2-carboxamide], in data set [1], the IC50 stood at 0.16 nM and at 0.01 µg/mL the inhibition was 95%. The CC50 at 5 days in data set [2] is > 13700 nM. In addition, in data set [3], the 50% inhibitory concentration (IC50) stood at 13.4 nM and the inhibition at 1 µg/mL was 99%.

Take `Cc1cnc(N2CC3(CCOCC3)C2)c(C(=O)Nc2ccc(C(=O)N3CCc4cc(C(=O)Nc5c(F)cccc5C(F)(F)F)sc4-c4ccccc43)cc2)c1` [Example 63, N-(2-fluoro-6-(trifluoromethyl)phenyl)-6-(4-(5-methyl-2-(7-oxa-2-azaspiro[3.5]nonan-2-yl)nicotinamido)benzoyl)-5,6-dihydro-4H-benzo[b]thieno[2,3-d]azepine-2-carboxamide]: in data set [1], the IC50 is 0.058 nM and the inhibition at 0.01 µg/mL amounted to 95%. For the same compound, in data set [2], the CC50 at 5 days was > 13000 nM. In data set [3], the half-inhibitory concentration (IC50) was determined as 1.6 nM and the inhibition at 1 µg/mL worked out at 100%.

With `COc1ccc(C(=O)Nc2ccc(C(=O)N3CCc4cc(C(=O)Nc5ccccc5F)sc4-c4ccccc43)cc2)c(N2CC3(CCOCC3)C2)n1` [Example 3, 6-(4-(6-methoxy-2-(7-oxa-2-azaspiro[3.5]nonan-2-yl)nicotinamido)benzoyl)-N-(2-fluorophenyl)-5,6-dihydro-4H-benzo[b]thieno[2,3-d]azepine-2-carboxamide], in data set [1], the 50% inhibitory concentration (IC50) was 1.3 nM and the inhibition at 0.1 µg/mL was found to be 100%. Moreover, the CC50 at 5 days in data set [2] is > 13900 nM. Also, in data set [3], the 50% inhibitory concentration (IC50) was 195 nM and the inhibition at 1 µg/mL was found to be 58%.

`Cc1cnc(N2CC3(CCOCC3)C2)c(C(=O)Nc2ccc(C(=O)N3CCc4cc(C(=O)Nc5ccccc5C)sc4-c4ccccc43)cc2)c1` [Example 35, 6-(4-(5-methyl-2-(7-oxa-2-azaspiro[3.5]nonan-2-yl)nicotinamido)benzoyl)-N-(o-tolyl)-5,6-dihydro-4H-benzo[b] thieno[2,3-d]azepine-2-carboxamide]: in data set [1], the IC50 stood at 0.14 nM and the inhibition at 0.1 µg/mL was determined as 100%. In addition, the CC50 at 5 days in data set [2] is > 14300 nM. Besides, in data set [3], the 50% inhibitory concentration (IC50) was 62.8 nM and the inhibition at 1 µg/mL worked out at 70%.

A word on the IC50: it is the point on the concentration scale where inhibition reaches its midpoint. Broadly, the inhibition is the share of the control response that was lost under treatment. For orientation: CC50 means the concentration that lowers cell viability or growth by half. A higher CC50 goes with lower toxicity to the cells.
